Data on 14 molecules can be found in patent US10603332B2, “Anti-obesity composition” (SUNSTAR INC., priority 2013, dated 2020).

This assay concerns preadipocyte 3T3-L1 cells. In words: Suppression of fat droplet accumulation in adipocytes (Oil Red O staining, OD 490 nm). It is filed as cell-based, mouse. The following applies: for Relative amount of fat accumulation: 3T3-L1 adipocytes, samples added Day 0 to Day 7 or 8 at the concentrations of each (Comparative) Example, medium to which nothing was added regarded as 100; for amount of fat accumulation: control (Comparative Example 1b) = 100; for relative amount of fat accumulation in adipocytes: control = 100. Here is the method:
Because they are immortalized cells, they can be mass-produced as fibroblasts before induction of differentiation. […] The passage media used were passage medium A (DMEM (4.5 g/L Glu), (Sigma, glucose, […]), 10% BS (Gibco, 16170), and 1% antibiotic (Gibco, Antibiotic-Antimycotic, 15240-062)) and passage medium B (DMEM (4.5 g/L Glu), 10% FBS (Biowest, S1560), and 1% antibiotic). The differentiation-inducing medium used was prepared by adding a 10-μg/mL insulin solution (Wako, 093-06351), 0.25 μM Dexamethasone (Sigma, D4902), and 0.11-mg/mL 3-isobutyl-1-methylxanthine (Sigma, 15879) to passage medium B. The differentiation-promoting medium used was prepared by adding a 5-μg/mL insulin solution to passage medium B. The differentiation-inducing medium and the differentiation-promoting medium were prepared before use. The oleuropein used was an “oleuropein” reagent available from Sigma. In the experiment, the oleuropein was used in such an amount that the final concentration was 50 μM. The hydroxytyrosol used was a “hydroxytyrosol” reagent available from Sigma. In the experiment, the hydroxytyrosol was used in such an amount that the final concentration was 25 μM. The willow extract used was a water extract (dry powder) of young branches including sprouts of willow (a plant mixture containing at least one or more members selected from Salix daphnoides, Salix purpurea, Salix fragilis, and Salix alba). In the experiment, the extract was diluted with the medium so that the final concentrations were 2.5, 5, 12.5, 25, 50, 100, and 200 μg/mL. The sulforaphane used was a “sulforaphane” reagent available from Sigma. In the experiment, a 100-mM DMSO solution was prepared, and diluted with the medium. A 5-mM γ-orizanol solution was prepared, and diluted with the medium. […] Embryo mouse) was grown in passage medium A. […] Sumilon Celltight C-1) so that the concentration was 2.5×10^4 cells/well. The cells were cultured for 2 days at 37° C. in the presence of 5% CO2. Thereafter, the medium was replaced with passage medium B. After confluent growth, culture was continued for about 2 days in passage medium B, and the medium was replaced with the differentiation-inducing medium (Day 0). Within 48 hours after the differentiation of the cells was induced in the differentiation-inducing medium, the medium was replaced with the differentiation-promoting medium (Day 2). Each sample was continuously added from the time of the replacement of the differentiation-inducing medium (Day 0) to Day 7 or 8. Cold 10% formalin/PBS was prepared by adding 10% (v/v) formalin to PBS (phosphate buffered saline) and adjusting the pH to 7.4, and then stored at 4° C. In this experiment, a 10% neutral buffered formalin solution (Wako, 060-03845) was used. The stain solution used was a 0.5% Oil Red O/isopropanol solution. Oil Red O (Wako, 154-02072) was dissolved in isopropanol (Sigma) by shaking to prepare a saturated solution. The 0.5% Oil Red 0/isopropanol solution and distilled water were mixed at a ratio of 3:2 immediately before use (preparation before use). The 3T3-L1 cells in the well plate cultured to Day 7 or 8 by the above culture method were used. Cold 10% formalin/PBS (0.5 mL/well) was added to the well plate containing the medium, and allowed to stand at room temperature. After the medium was removed, cold 10% formalin/PBS (0.5 mL/well) was newly added, and allowed to stand at room temperature. After the formalin solution was removed, the well plate was washed 2 or 3 times with distilled water (1 mL/well) to completely remove the remaining […]. After the well plate was washed once with 60% isopropanol (0.5 mL/well), the filtered stain solution was added at 1 mL/well, and allowed to stand at room temperature. After staining, the well plate was washed once with 60% isopropanol (0.5 mL/well), and washed 2 or 3 times with distilled water (1 mL/well). […] The eluted isopropanol solution was measured by a microplate reader at OD 490 nm. […]

Consider `C/C=C1/[C@H](O[C@@H]2O[C@H](CO)[C@@H](O)[C@H](O)[C@H]2O)OC=C(C(=O)OC)[C@H]1CC(=O)OCCc1ccc(O)c(O)c1` [1a, Oleuropein], for which the “Relative amount of fat accumulation” value amounted to 99.9.
Regarding `OCCc1ccc(O)c(O)c1` [2b, Hydroxytyrosol], the “Relative amount of fat accumulation” value was found to be 99.3.
For the molecule `C[S+]([O-])CCCCN=C=S` (stereo not shown) [3a, Sulforaphane], the “Relative amount of fat accumulation” value came out at 110.7.
`OCCc1ccc(O)c(O)c1` [3b, Hydroxytyrosol]: the “Relative amount of fat accumulation” value is recorded as 78.4.
`C[S+]([O-])CCCCN=C=S` (stereo not shown) [5a, Sulforaphane]: the “Relative amount of fat accumulation” value came out at 100.9.
With `C[S+]([O-])CCCCN=C=S` (stereo not shown) [5b, Sulforaphane], the “Relative amount of fat accumulation” value is reported as 104.8.
With `C[S+]([O-])CCCCN=C=S` (stereo not shown) [6b, Sulforaphane], the “Relative amount of fat accumulation” value was found to be 100.8.
Consider `C[S+]([O-])CCCCN=C=S` (stereo not shown) [Comparative Example 4a, Sulforaphane], for which the “Relative amount of fat accumulation” value was 109.8.
Regarding `OCCc1ccc(O)c(O)c1` [hydroxytyrosol], the “amount of fat accumulation” value (25 μM added alone) is on record as “around 100”. Also, for the setting “37.5 μM added alone”, the “fat accumulation-suppressing effect higher than that of the control” value is “about 25%”.
As to `C/C=C1/[C@H](O[C@@H]2O[C@H](CO)[C@@H](O)[C@H](O)[C@H]2O)OC=C(C(=O)OC)[C@H]1CC(=O)OCCc1ccc(O)c(O)c1` [oleuropein], for the setting “50 μM added alone”, the “relative amount of fat accumulation in adipocytes” value is recorded as “around 100”.
For the molecule `C[S+]([O-])CCCCN=C=S` (stereo not shown) [sulforaphane], the “amount of fat accumulation” value (0.25 or 2.5 μM added alone) is “around 100”. Moreover, the “relative amount of fat accumulation in adipocytes” value (0.5 to 1.25 μM added alone) was “around 100”.
As to γ-Orizanol [7b], the “Relative amount of fat accumulation” value was 78.5.
Still for that read-out and setting: under γ-Orizanol [Comparative Example 6a] stands 51.4.
As to γ-orizanol, the “fat accumulation-suppressing effect higher than that of the control” value (0.5 μM added alone) is given as “about 25%”.
